How the values were obtained:
[1] = tested on: myo-inositol brain levels; assay: Phase 2 trial: brain myo-inositol and scyllo-inositol levels by magnetic resonance spectroscopy (MRS); type: in vivo, human
Description: (§1) In a Phase 2, parallel arm, dose-ranging, placebo-controlled, double-blind, multicenter trial in patients with mild to moderate AD (MMSE 16-26), scyllo-inositol was administered to study subjects in immediate release tablets twice daily at the dosage level set for each study arm or identical-appearing placebo tablets were administered in the control arm. […] The study included neuropsychological assessments using the NPI-12 item scale, as well as assessments of scyllo-Inositol (SI) and myo-inositol (MI) brain levels using magnetic resonance spectroscopy (MRS).
The maximal myo-inositol reduction measured at the 3 studied doses was 44%, 66% and 60% at the 250 mg, 1000 mg, and 2000 mg bid doses, respectively.

amyloid β-peptide = settings: given orally, transgenic mouse model of AD; cited from earlier work
CSF Abeta42 = assay: Phase 2 trial: cerebrospinal fluid Abeta42; type: in vivo, human; settings: 250 mg bid; statistically significant
Description: The effect of the 250 mg dose on cerebrospinal fluid (CSF) Abeta42 reduction (˜27% compared to baseline) was statistically significant, but the higher doses seemed to provide further Abeta42 reduction. Despite the dose-dependent effects of scyllo-inositol on CSF Abeta42, the 2 high doses consistently produced smaller effects on clinical endpoints than the 250 mg dose. This observed dissociation between the dose-dependent effects on CSF Abeta42 and the clinically measured NPI outcomes supports the concept that scyllo Inositol clinical effects are mediated by two distinct mechanisms. These mechanisms include: 1. reduction of brain amyloid load and resulting synaptic toxicity which has previously been disclosed affect memory and reasoning/problem solving, but not NPS, and 2. down-regulation of brain myo-inositol levels with secondary salutary effects on neuronal function (Machado-Vieira et al. 2009). The only other MRS studies measuring in vivo brain levels of myo-inositol and scyllo-inositol after scyllo-inositol administration were in transgenic mice. (Choi, et al. 2010, Neuropharmacology, 59(4-5): 353-357). […] The details of the Phase 2 data are described below.

[2] = tested on: patients with mild to moderate AD (MMSE 16-26); assay: Phase 2 trial: Neuropsychiatric Inventory (NPI-12) scores, cluster scores and emergence of new NPS; type: in vivo, human
Text: Several scales have been used for the assessment of BPSD. These include scales that have been specifically designed for studying NPS in patients with dementia, such as the “Behavioral Pathology in AD Rating Scale” (BEHAVE-AD, Reisberg et al. BEHAVE-AD: A clinical rating scale for the assessment of pharmacologically remediable behavioral symptomatology in Alzheimer's disease. In: Altman H J, editor. Alzheimer's Disease: Problems, prospects, and perspectives. Plenum; New York: 1987. pp. 1-161996), CERAD behavior rating scale for dementia (BRSD, Tariot 1996, International Psychogeriatrics, 8(Suppl. 3):317-320), and the Neuropsychiatric Inventory (NPI, Cummings et al. 1994, Neurology. 1994; 44:2308-14). The NPI which was designed to evaluate the broad range of behavioral symptoms that may develop in dementia patients, is a well validated instrument and has been widely used in BPSD studies and in AD treatment trials. The original version assessed 10 symptoms or items, including: delusions, hallucinations, agitation/aggression, depression/dysphoria, anxiety, apathy, irritability, euphoria/elation, disinhibition, and aberrant motor behavior; and was subsequently updated to include appetite changes and nighttime behaviors (sleep disturbances). The NPI is administered by a trained individual as a structured interview with the patient's caregiver. Each item is assessed by a scripted screening question, and the frequency and severity of each item is scored from 0-4 (0: absent, 1: occasional or less than once per week to 4 occurs at least daily), and from 1-3 (1: mild or produces little distress in patient; 2: moderate or more disturbing to patient but can be re-directed by caregiver; and 3: severe or very disturbing to patient and difficult to re-direct). The total item-score is then derived from frequency multiplied by the severity score; and the total NPI score (NPI-T) is derived from addition of all item scores, with the range of scores being from 0 (no NPS at all) to 144 (all 12 NPS are present at maximum severity at daily basis). In the majority of the drug trials in Mild/Moderate AD, the mean total NPI scores are ˜10-12 at baseline. The Phase 2 study described in the example below utilized the NPI-12 item assessment; and the mean total NPI scores were between 8 and 10 at baseline. This baseline severity is slightly lower than the range reported in many Mild to Moderate AD trials reported in the literature.
as §1
The present study was a dose ranging study in Mild and Moderate AD patients (defined as having MMSE scores of 16-26 inclusive), and included 3 doses of scyllo-insoitol given bid (250 mg, 1000 mg, and 2000 mg) and placebo. The study was of 78 weeks duration and enrolled a total of 353 patients, and 351 received study drug (safety population). Due to safety findings in the 2 highest dose groups, these 2 groups were discontinued and the study's final efficacy analysis was based only on the 250 mg and placebo groups. […] In the overall study population, total randomized to all 4 dose groups=353, total that received study drug=351 (safety population, at any dose). For placebo and 250 mg group, the overall m-ITT (modified intent-to-treat)=166, overall PPS (per protocol set)=96.
A potentially disease-modifying drug, by altering regional neuronal dysfunction, may prevent or delay the emergence of abnormal behaviors as quantified by the NPI outcomes. […]

[3] = 250 mg bid vs placebo, Mild AD, m-ITT

- brain scyllo-inositol level by MRS ([1]; 250, 1000, 2000 mg bid): dose-dependent increase
SMILES: O[C@H]1[C@H](O)[C@@H](O)[C@H](O)[C@@H](O)[C@@H]1O [scyllo-inositol]
- maximal myo-inositol reduction in brain (MRS) ([1]; 250 mg bid, maximal at about 48 to about 78 weeks): 44%
- maximal myo-inositol reduction in brain (MRS) ([1]; 1000 mg bid): 66%
- maximal decrease of myo-inositol levels ([1]; 1000 mg bid and 2000 mg bid): 60-66%
- maximal myo-inositol reduction in brain (MRS) ([1]; 2000 mg bid): 60%
- aggregation of amyloid β-peptide in the brain (amyloid β-peptide): inhibits aggregation of amyloid β-peptide in the brain
- CSF Abeta42 reduction compared to baseline (CSF Abeta42): 27%
- Score Difference (Summary Statistics), Affective Syndrome (6 symptoms) ([2]; 250 mg bid vs placebo, Mild AD MMSE 22-26, m-ITT): +3.47
- Score Difference (MMRM), Affective Syndrome (Depression, Anxiety, Agitation, Nighttime Behavior, Appetite Changes, Apathy) ([2]; 250 mg bid vs placebo, Mild AD MMSE 22-26, m-ITT, factor-analysis cluster): +1.36
- Score Difference (MMRM), Apathy [2, 3]: −0.35
- Score Difference (MMRM), Behavioral cluster: Aberrant Motor/Nighttime Behaviors [2, 3]: +0.05
- Score Difference (MMRM), Frontal cluster: Elation and Disinhibition [2, 3]: +0.33
- Score Difference (MMRM), Psychotic cluster: Delusions and Hallucinations [2, 3]: −0.29
- Score Difference (MMRM), Affective: Depression and Anxiety ([2]; 250 mg bid vs placebo, Moderate AD MMSE 16-21, m-ITT): +0.94
- improvement of Affective Syndrome score change compared to placebo group, by MMRM ([2]; 250 mg bid, Mild AD MMSE 22-26): 35%
- improvement of Affective Syndrome score change compared to placebo group, by summary statistics ([2]; 250 mg bid, Mild AD MMSE 22-26): 91%
- NPI total score benefit compared to placebo ([2]; 250 mg bid, Mild MMSE 22-26, m-ITT, 78 weeks): 44%
- NPI total score numerical difference from placebo ([2]; 250 mg bid, Mild MMSE 22-26, m-ITT, 78 weeks, not statistically significant): ~2 points
- proportion of patients who developed at least 2 new symptoms, lower versus placebo ([2]; 250 mg bid, Mild m-ITT MMSE 22-26, over 78 weeks, p<0.05): 21.5%
- NPI total score improvement versus placebo ([2]; 250 mg bid, Moderate MMSE 16-21, PP analysis): ~50%
- NPI total score, better than placebo ([2]; 250 mg bid, Moderate MMSE 16-21, PP analysis, 78 weeks, not statistically significant): ~4 points
- NPI total score versus placebo ([2]; 250 mg bid, Moderate MMSE 16-21, m-ITT analysis): did not show significant differences from placebo
- proportion of patients who developed at least 2 new symptoms, lower versus placebo ([2]; 250 mg bid, Moderate m-ITT MMSE 16-21, over 78 weeks, p=0.33): 12.4%
- proportion of patients who developed at least 4 new symptoms, lower versus placebo ([2]; 250 mg bid, Moderate m-ITT MMSE 16-21, over 78 weeks, p=0.34): 12.1%
- increase in prevalence of irritability, baseline to end of study ([2]; 250 mg group, Mild, week 78): 10%
- prevalence of apathy, anxiety, agitation, appetite and sleep change, baseline to end of study ([2]; 250 mg group, Mild, week 78): remained stable
- emergence of depression, anxiety, appetite change, agitation and apathy at any time during the study ([2]; 250 mg, Mild MMSE 22-26): decreases the emergence
- emergence of NPS at any time during the study ([2]; 250 mg, Moderate MMSE 16-21): decreased emergence of most NPS
- emergence of irritability ([2]; 250 mg, Moderate MMSE 16-21): more prevalent with treatment
- Score Difference (MMRM), Affective: Depression and Anxiety ([2]; Moderate AD, PPS): +1.07
- Score Difference (MMRM), Apathy ([2]; Moderate AD, PPS): +0.14
- Score Difference (MMRM), Behavioral: Aberrant Motor, Nighttime Behaviors ([2]; Moderate AD, PPS): +1.42
- Score Difference (MMRM), Frontal: Elation and Disinhibition ([2]; Moderate AD, PPS): +0.68
- Score Difference (MMRM), Psychotic: Delusions and Hallucinations ([2]; Moderate AD, PPS): +1.32
- Score Difference (summary statistics), Affective: Depression and Anxiety ([2]; Moderate AD, PPS): +0.06
- Score Difference (summary statistics), Apathy ([2]; Moderate AD, PPS): +0.68
- Score Difference (summary statistics), Behavioral: Aberrant Motor, Nighttime Behaviors ([2]; Moderate AD, PPS): +1.96
- Score Difference (summary statistics), Frontal: Elation and Disinhibition ([2]; Moderate AD, PPS): +0.53
- Score Difference (summary statistics), Psychotic: Delusions and Hallucinations ([2]; Moderate AD, PPS): +0.71
- Score Difference (MMRM), Apathy ([2]; Moderate AD, m-ITT): +0.97
- Score Difference (MMRM), Behavioral: Aberrant Motor, Nighttime Behaviors ([2]; Moderate AD, m-ITT): +0.11
- Score Difference (MMRM), Frontal: Elation and Disinhibition ([2]; Moderate AD, m-ITT): +0.56
- Score Difference (MMRM), Psychotic: Delusions and Hallucinations ([2]; Moderate AD, m-ITT): −0.52
- Score Difference (summary statistics), Affective: Depression and Anxiety ([2]; Moderate AD, m-ITT): −0.15
- Score Difference (summary statistics), Apathy ([2]; Moderate AD, m-ITT): +1.09
- Score Difference (summary statistics), Behavioral: Aberrant Motor, Nighttime Behaviors ([2]; Moderate AD, m-ITT): +1.76
- Score Difference (summary statistics), Frontal: Elation and Disinhibition ([2]; Moderate AD, m-ITT): +0.48
- Score Difference (summary statistics), Psychotic: Delusions and Hallucinations ([2]; Moderate AD, m-ITT): +0.34
- emergence of depression and/or anxiety by plasma AUC quartile ([2]; plasma AUC corresponding to the 250 mg bid dose (second quartile)): significant decrease
